Results reported in patent publication US20240226034A1, “Use of Terpenoids and Salicylates as Anesthetics and Analgesics” (THE REGENTS OF THE UNIVERSITY OF CALIFORNIA, priority 2021, published 2024).

Columns and labels:
Sprague Dawley rats [1] = assay: Pilot study, single IV bolus injection, righting reflex and tail clamp response; details: for time to return of righting reflex: methyl salicylate: the 2 surviving rats
Description: Solutions of 10% (v/v) L-carvone or methyl salicylate were prepared sterilely in 20% […]® (Fresenius Kabi, Lake Zurich, IL, USA). Lateral tail vein catheters were placed in twenty-one 69-day-old, male, Sprague Dawley rats weighing 291±17 (mean±SD) grams. Each rat received a single intravenous bolus injection of L-carvone solution (0.2 or 0.4 mL), methyl salicylate solution (0.1, 0.15, 0.2, or 0.4 mL), or a 1:1 mixture of the L-carvone and methyl salicylate solutions over 15 s. Because L-carvone density is 0.9673 g/cm^3 at 25° C., 0.2 mL and 0.4 mL of solution contained 19 mg and 39 mg of L-carvone, respectively (E. E. Royals & S. E. Horne, J. Am. Chem. Soc. 73, (1951): 5850).
Spontaneous motor activity and loss-of-righting reflex was assessed at 5- to 10-s intervals, and nociception response to an alligator clamp applied to the tail was tested if the righting reflex was absent. […] Animals were weighed 24 and 48 h after the study and then euthanized for gross pathology examination.

Sprague Dawley rats [2] = assay: Continuous IV infusion anesthesia; assay type: in vivo, rat; details: for time after start of injection to loss-of-righting and absent tail clamp response: continuous 0.2 mL/min IV infusion of 10% emulsion
Description: Lateral tail veins were catheterized in eight, 70-day-old, male, Sprague Dawley rats weighing 309±6 g. A 10% solution of L-carvone or methyl salicylate in 20% […]® was each administered IV to 8 rats (4 animals per drug treatment) by using a syringe pump at a rate of 12 mL/h. When rats lost their righting reflex and were unresponsive to a tail clamp, a midline laparotomy was performed, the abdominal aorta catheterized, and the rat exsanguinated. Blood was collected in a heparin tube and centrifuged; plasma was separated and stored in cryogenic tubes at −80° C. until analysis.

[3] = target: T1, Nav1.2 channels (human SCN2A) (Homo sapiens, UniProt Q99250); assay: Two-electrode voltage clamp of Nav1.2 channels expressed in Xenopus oocytes; assay type: cell-based; details: for inhibition of Nav1.2 channels: at the mean plasma concentration during IV infusion anesthesia in rats; for Hill coefficient, Nav1.2 channel inhibition: dose-response model; for effect on Nav1.2 channel currents: dose-response, oocytes
T1 construct: expressed in transfected cells; host or cells: Xenopus laevis oocytes (RNA injection)
From the text: (§1) Ovaries removed from sexually mature Xenopus laevis frogs were bluntly dissected to remove surrounding connective tissue and then digested with 0.2% type I collagenase in an oocyte Ringer's solution. Once free from thecal cells and connective tissue, individual oocytes were rinsed, sorted, and stored in a modified Barth's solution (R. Brosnan et al., Anesth. Analg. 103, (2006): 86; L. Yang, P. S. Milutinovic, R. J. Brosnan, E. I. Eger 2nd, & J. M. Sonner, Anesth. Analg. 105, (2007): 393; R. J. Brosnan, F. B. Fukushima, & T. L. Pham, Anaesth. Analg. 44, (2017): 577; A. Cenani, R. J. Brosnan, & H. K. Knych, Pharmacology 103, (2019): 10).
(§2) Heteromeric GABAA receptors were expressed in oocytes by blind intranuclear injection of 1 ng DNA encoding the human al (GABRA1) and rat B2 (GABRB2) subunits in a 1:1 ratio. NMDA receptors were expressed by intracytoplasmic injection of 5 ng RNA encoding rat NR1 (GRIN1) and rat NR2a (GRIN2A) subunits in a 1:1 ratio. Nax 1.2 channels were expressed by injection of 5 ng RNA encoding the human SCN2A gene.
Studies of the Nav1.2 channels were carried out Using the same equipment as above, oocytes were perfused with FR and clamped at −80 mV transmembrane potential. Every 2 min, a 6-s step potential to 0 mV was applied to open the channel; this was repeated until baseline responses stabilized. Next, FR containing the test drug was perfused for 2 min followed by another 6-s step voltage change to 0 mV. Finally, FR was perfused for 5 min to wash out the drug, and another 6-s step clamp to 0 mV was applied to confirm that post-drug currents had returned to within 10% of pre-drug values.
(§3) The change in whole cell peak current before and during agonist exposure (for GABAA and NMDA receptors) or before and during the voltage step clamp (for Nav1.2 channels) was measured in the tracings immediately before and during drug exposure. Percent change in current was calculated as follows:
(§4) [formula] • where IB is the baseline pre-drug current peak and ID is the drug current peak. For each drug and ion channel, data were fit to a Hill equation using nonlinear regression with sequential quadratic programming and bootstrap estimates of parameter standard errors (SPSS, v. 27; IBM, Armonk, NY, USA). In the model, maximum drug inhibition (Imax) was constrained to not be less than −100%. Initial parameter estimates were seeded with values based on visual inspection of respective dose-response curves in order to facilitate model convergence.

[4] = target: T2, NMDA receptors (rat NR1 GRIN1 and rat NR2a GRIN2A subunits) (Rattus norvegicus, UniProt P35439+Q00959); assay: Two-electrode voltage clamp of NMDA receptors expressed in Xenopus oocytes; assay type: cell-based; details: for inhibition of NMDA receptors: at the mean plasma concentration during IV infusion anesthesia in rats; for Hill coefficient, NMDA receptor inhibition: dose-response model; for effect on NMDA receptor currents: dose-response, oocytes
T2 construct: expressed in transfected cells; host or cells: Xenopus laevis oocytes (intracytoplasmic RNA injection)
From the text: as §1, §2
Studies of NMDA receptors were carried out using equipment identical to that described for GABAA receptors. Transmembrane potential was clamped at −80 mV, and oocytes were perfused with a barium-containing FR solution (Ba-FR) which substituted equimolar BaCl2 for calcium salts and contained 0.1 mM EGTA as a calcium chelator. After 5 min, the perfusate was changed for 30 s to barium FR containing 0.1 mM glutamate plus 0.01 mM glycine (Ba-FREG) as receptor agonists which produce an NMDA receptor current greater than 99% of the maximal response. Next, Ba-FR containing the study drug was perfused for 5 min and then switched to Ba-FREG containing the same test article for 30 s. The drug was then washed out with a 5-min perfusion of Ba-FR followed by a 30-s exposure to Ba-FREG to confirm post-drug currents had returned to within 10% of pre-drug values.
as §3, §4

carp = details: immersion; cited from earlier work
[5] = 0.2 mL IV bolus of 10% emulsion

T1 sequence (Q99250 whole entry, the tested form may be a part): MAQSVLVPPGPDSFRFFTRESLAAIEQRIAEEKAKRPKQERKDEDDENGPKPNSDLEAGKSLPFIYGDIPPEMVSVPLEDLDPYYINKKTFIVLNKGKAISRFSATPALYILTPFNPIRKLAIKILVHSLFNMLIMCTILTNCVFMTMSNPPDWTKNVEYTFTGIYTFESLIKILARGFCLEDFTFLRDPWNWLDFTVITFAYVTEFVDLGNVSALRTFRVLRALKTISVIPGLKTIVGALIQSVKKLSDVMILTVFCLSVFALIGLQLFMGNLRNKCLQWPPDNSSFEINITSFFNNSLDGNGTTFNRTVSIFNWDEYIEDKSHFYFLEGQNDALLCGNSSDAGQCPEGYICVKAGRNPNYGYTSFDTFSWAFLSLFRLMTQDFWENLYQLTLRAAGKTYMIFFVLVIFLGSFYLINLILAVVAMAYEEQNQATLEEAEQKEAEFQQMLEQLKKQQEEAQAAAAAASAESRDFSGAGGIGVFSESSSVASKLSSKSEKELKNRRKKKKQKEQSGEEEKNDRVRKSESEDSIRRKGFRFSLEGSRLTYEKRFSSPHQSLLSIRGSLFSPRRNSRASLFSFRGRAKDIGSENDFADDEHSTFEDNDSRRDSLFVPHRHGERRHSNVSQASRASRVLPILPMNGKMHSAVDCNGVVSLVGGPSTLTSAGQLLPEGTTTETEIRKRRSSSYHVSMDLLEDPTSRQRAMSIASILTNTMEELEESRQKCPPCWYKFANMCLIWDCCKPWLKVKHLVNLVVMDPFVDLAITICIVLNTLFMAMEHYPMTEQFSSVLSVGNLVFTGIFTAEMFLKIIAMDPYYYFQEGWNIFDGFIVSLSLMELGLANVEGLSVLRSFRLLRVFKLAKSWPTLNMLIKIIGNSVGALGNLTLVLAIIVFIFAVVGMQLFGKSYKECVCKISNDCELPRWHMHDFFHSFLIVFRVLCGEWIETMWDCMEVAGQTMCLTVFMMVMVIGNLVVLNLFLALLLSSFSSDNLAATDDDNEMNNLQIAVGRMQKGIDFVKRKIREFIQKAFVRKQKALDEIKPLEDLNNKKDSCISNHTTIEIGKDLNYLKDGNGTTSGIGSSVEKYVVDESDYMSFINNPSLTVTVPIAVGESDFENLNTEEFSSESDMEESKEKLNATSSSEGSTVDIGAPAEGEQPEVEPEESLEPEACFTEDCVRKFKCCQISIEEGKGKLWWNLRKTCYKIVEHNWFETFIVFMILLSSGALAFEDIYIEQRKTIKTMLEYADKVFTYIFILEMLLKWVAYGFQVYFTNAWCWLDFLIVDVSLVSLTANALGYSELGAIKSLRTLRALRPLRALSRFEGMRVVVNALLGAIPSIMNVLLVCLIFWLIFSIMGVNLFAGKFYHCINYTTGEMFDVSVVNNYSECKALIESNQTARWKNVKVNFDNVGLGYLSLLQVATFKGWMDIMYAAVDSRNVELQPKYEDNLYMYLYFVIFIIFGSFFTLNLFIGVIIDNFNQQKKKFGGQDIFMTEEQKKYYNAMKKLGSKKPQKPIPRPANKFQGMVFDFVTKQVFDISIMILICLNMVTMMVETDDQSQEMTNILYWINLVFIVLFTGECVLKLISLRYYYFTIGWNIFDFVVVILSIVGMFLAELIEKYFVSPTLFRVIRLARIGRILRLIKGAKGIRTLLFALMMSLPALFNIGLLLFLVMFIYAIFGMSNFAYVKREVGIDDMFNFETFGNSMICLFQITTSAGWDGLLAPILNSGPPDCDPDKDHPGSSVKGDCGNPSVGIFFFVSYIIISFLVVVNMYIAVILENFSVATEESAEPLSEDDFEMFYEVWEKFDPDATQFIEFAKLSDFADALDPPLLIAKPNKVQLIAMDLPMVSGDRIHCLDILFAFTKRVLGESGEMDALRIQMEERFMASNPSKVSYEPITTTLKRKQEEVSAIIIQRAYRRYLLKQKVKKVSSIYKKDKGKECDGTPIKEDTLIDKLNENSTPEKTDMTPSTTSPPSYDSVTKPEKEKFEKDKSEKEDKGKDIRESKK
T2 sequence (Q00959 20-1464 limits assumed, other chains not shown): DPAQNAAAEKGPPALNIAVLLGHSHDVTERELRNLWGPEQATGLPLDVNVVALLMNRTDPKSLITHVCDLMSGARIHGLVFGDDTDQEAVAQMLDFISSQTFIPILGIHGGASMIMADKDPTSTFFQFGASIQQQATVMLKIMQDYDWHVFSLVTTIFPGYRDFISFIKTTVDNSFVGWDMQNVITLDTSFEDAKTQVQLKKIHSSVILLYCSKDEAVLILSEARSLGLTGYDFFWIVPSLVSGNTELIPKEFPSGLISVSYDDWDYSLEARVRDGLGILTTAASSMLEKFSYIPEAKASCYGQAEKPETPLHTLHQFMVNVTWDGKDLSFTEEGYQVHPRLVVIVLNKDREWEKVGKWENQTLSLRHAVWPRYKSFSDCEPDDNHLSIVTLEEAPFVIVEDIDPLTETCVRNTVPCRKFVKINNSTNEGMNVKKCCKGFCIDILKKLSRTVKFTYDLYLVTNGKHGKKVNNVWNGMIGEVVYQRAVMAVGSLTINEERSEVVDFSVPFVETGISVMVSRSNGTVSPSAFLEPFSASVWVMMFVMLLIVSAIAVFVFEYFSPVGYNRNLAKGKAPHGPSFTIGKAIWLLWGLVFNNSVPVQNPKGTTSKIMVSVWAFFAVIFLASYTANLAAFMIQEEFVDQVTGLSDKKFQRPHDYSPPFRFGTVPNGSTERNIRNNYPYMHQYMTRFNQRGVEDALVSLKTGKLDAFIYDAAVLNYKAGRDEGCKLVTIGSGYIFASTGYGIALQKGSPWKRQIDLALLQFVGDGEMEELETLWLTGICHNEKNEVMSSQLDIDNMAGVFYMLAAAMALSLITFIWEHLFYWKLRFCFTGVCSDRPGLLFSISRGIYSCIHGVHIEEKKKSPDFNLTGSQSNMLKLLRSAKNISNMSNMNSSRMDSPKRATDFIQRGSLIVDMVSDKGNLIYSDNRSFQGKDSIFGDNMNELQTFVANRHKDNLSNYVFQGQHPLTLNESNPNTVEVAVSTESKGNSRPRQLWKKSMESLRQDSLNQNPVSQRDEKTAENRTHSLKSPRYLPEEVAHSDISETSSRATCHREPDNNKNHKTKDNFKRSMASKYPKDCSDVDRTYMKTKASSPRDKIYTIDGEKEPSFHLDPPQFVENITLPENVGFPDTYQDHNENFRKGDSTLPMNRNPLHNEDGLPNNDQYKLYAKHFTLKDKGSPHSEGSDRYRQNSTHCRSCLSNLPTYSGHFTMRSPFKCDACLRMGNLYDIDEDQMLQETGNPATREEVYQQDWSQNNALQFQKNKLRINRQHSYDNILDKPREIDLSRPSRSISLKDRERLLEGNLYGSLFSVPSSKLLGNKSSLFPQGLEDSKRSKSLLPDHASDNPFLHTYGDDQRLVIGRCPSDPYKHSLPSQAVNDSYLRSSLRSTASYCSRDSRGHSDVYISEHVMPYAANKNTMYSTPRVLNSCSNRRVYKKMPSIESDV

Compound	time to walking and active / ambulating normally (Sprague Dawley rats [1]; 0.2 mL IV bolus) [s]	time to loss of tail clamp response (general anesthesia) (Sprague Dawley rats [1]; [5]) [s]	time to loss-of-righting reflex (Sprague Dawley rats [1]; [5]) [s]	time to return of righting reflex (Sprague Dawley rats [1]; 0.2 mL IV bolus) [s]	time to unconsciousness (Sprague Dawley rats [1]; 0.4 mL IV bolus) [s]	time after start of injection to loss-of-righting and absent tail clamp response (Sprague Dawley rats [2]) [min]	inhibition of Nav1.2 channels [3] [%]	Hill coefficient, Nav1.2 channel inhibition [3]	effect on Nav1.2 channel currents [3]	inhibition of NMDA receptors [4] [%]	Hill coefficient, NMDA receptor inhibition [4]	effect on NMDA receptor currents [4]	bath concentration causing anesthesia (carp) [mM]	other results
COC(=O)c1ccccc1O [methyl salicylate]	110	37 ± 13	35 ± 10	58	20 ± 5	3 to 4	78	greater than 1	dose-dependently inhibited	53	~1	dose-dependently inhibited	0.8 to 2.3	time to loss-of-righting reflex (Sprague Dawley rats [1]; 0.1 mL IV bolus of 10% emulsion in 20% INTRALIPID, single rat): 33 s; general anesthesia (immobility in response to a tail clamp) (Sprague Dawley rats [1]; 0.1 mL IV bolus, single rat): never resulted in general anesthesia; time to return-of-righting reflex (Sprague Dawley rats [1]; 0.1 mL IV bolus, single rat): 60 s; time to anesthesia (Sprague Dawley rats [1]; 0.15 mL IV bolus, N=4 rats): 39 ± 2 s; time to loss-of-righting (Sprague Dawley rats [1]; 0.15 mL IV bolus, N=4 rats): 35 ± 5 s; time to normal ambulation without ataxia (Sprague Dawley rats [1]; 0.15 mL IV bolus, N=4 rats): 76 ± 10 s; time to return from anesthesia (tail clamp response) after drug injection (Sprague Dawley rats [1]; 0.15 mL IV bolus, N=4 rats): 64 ± 8 s; time to return of righting after drug injection (Sprague Dawley rats [1]; 0.15 mL IV bolus, N=4 rats): 53 ± 3 s; time to regain tail clamp response (Sprague Dawley rats [1]; 0.2 mL IV bolus, the 2 surviving rats): 48 s; body weight for the next two days, relative to baseline values (Sprague Dawley rats [1]; rat, in vivo): 97-98%; gross pathology / necropsy findings (Sprague Dawley rats [1]; rat, in vivo): no gross abnormalities; excitement after injection (Sprague Dawley rats [2]; rat, in vivo, iv): transient excitement in half of the animals; tonic or clonic muscle activity (Sprague Dawley rats [2]; rat, in vivo, iv): No tonic or clonic muscle activity; greater potency for Nav1.2 channels than for NMDA receptors ([3]; comparison of IC50, FIG. 4): 50%
L-carvone	60 ± 13	54 ± 11	40 ± 6	58 ± 14	20 ± 4	2 to 4	90	~1	dose-dependent inhibition	71	~1	dose-dependent inhibition	1.9 to 4.5	body weight over the next 2 days, deviation from baseline (Sprague Dawley rats [1]; 0.2 mL IV bolus): 1.9±1.4%; behavioural sign before loss-of-righting reflex (Sprague Dawley rats [1]; 0.2 mL IV bolus, N=4 rats): transient excitement; duration of transiently decreased respiratory rate (Sprague Dawley rats [1]; 0.2 mL IV bolus, N=4 rats): approximately 10 s; duration of whole-body muscle hypertonia (Sprague Dawley rats [1]; 0.2 mL IV bolus, half of the rats): 15 s; time to cardiopulmonary arrest (Sprague Dawley rats [1]; 0.4 mL IV bolus): 35 ± 18 s; gross pathology / necropsy findings (Sprague Dawley rats [1]; recovered animals (sublethal doses), 48 h after drug administration): no gross pathology findings; tonic or clonic muscle activity (Sprague Dawley rats [2]; continuous 0.2 mL/min IV infusion): tonic muscle contractions suggestive of seizure; Nav1.2 channel current at highest concentration ([3]; 10 mM drug): near or complete loss of channel currents; NMDA receptor current at highest concentration ([4]; 10 mM drug): near or complete loss of channel currents; greater inhibition of NMDA receptors and Nav1.2 channels than at the methyl salicylate plasma concentrations ([4]; at L-carvone plasma concentrations during anesthesia, NMDA and Nav1.2): 15-30%
